Experiments:
[1] = Biliary excretion and bile flow after i.v. TFA-IOP (100 umol/kg) or IOP (100 in text, 104 umol/kg in tables) in rats; details: rat; for Bile flow / Bile flow per kg b.w. / Bile flow per kg l.w.: i.v.
Method: Tissues examined included liver, spleen, upper GI, lower GI, kidney, lung and heart. The length of each study was 90 minutes, during which time bile, urine and plasma samples were taken to monitor uptake and excretion. NMR relaxation rates for liver and plasma were also examined to note whether uptake of either compound might possible alter these parameters.

[2] = Urinary excretion after i.v. IOP or TFA-IOP in rats; assay type: in vivo; details: rat

`CCC(Cc1c(I)cc(I)c(N)c1I)C(=O)O` (stereo not shown) [IOP, iopanoic acid, reference compound] showed a concentration at 25 min ([1]; bile, iv, 100 umol/kg) of 10500 µM, a concentration at 0.5 h ([1]; bile, iv, 100 umol/kg) of 10500 µM and a concentration at 35 min ([1]; bile, iv, 100 umol/kg) of 9850 µM. The concentration at 40 min ([1]; bile, iv, 100 umol/kg) was 9850 µM, the concentration at 50 min ([1]; bile, iv, 100 umol/kg) was 9670 µM and the concentration at 55 min ([1]; bile, iv, 100 umol/kg) was 7320 µM. For the same compound, the concentration at 1 h ([1]; bile, iv, 100 umol/kg) was 7320 µM, the concentration at 65 min ([1]; bile, iv, 100 umol/kg) was 7530 µM and the concentration at 70 min ([1]; bile, iv, 100 umol/kg) was 7530 µM. For the same compound, the concentration at 1.25 h ([1]; bile, iv, 100 umol/kg) was 7760 µM, the concentration at 80 min ([1]; bile, iv, 100 umol/kg) was 7760 µM and the concentration at 85 min ([1]; bile, iv, 100 umol/kg) was 9560 µM. For the same compound, the concentration at 1.5 h ([1]; bile, iv, 100 umol/kg) was 9560 µM, the dose excreted at 1.5 h ([1]; bile, iv, 100 umol/kg) was 18% and the Bile flow ([1]; 0-10 min) was “.01375 mL/min”. For the same compound, the “Bile flow per kg b.w.” value ([1]; 0-10 min) was “.03386 ml/min per kg b.w”, the “Bile flow per kg l.w.” value ([1]; 0-10 min) was 1.147 ml/min per kg l.w and the Bile flow ([1]; 10-20 min) was “.00867 mL/min”. For the same compound, the “Bile flow per kg b.w.” value ([1]; 10-20 min) was “.02136 ml/min per kg b.w”, the “Bile flow per kg l.w.” value ([1]; 10-20 min) was “.72404 ml/min per kg l.w” and the Bile flow ([1]; 20-30 min) was “.01077 mL/min”. The “Bile flow per kg b.w.” value ([1]; 20-30 min) was “.02652 ml/min per kg b.w”, the “Bile flow per kg l.w.” value ([1]; 20-30 min) was “.89866 ml/min per kg l.w” and the Bile flow ([1]; 30-40 min) was “.00977 mL/min”. For the same compound, the “Bile flow per kg b.w.” value ([1]; 30-40 min) was “.02406 ml/min per kg b.w”, the “Bile flow per kg l.w.” value ([1]; 30-40 min) was “.81528 ml/min per kg l.w” and the Bile flow ([1]; 40-50 min) was “.01161 mL/min”. The “Bile flow per kg b.w.” value ([1]; 40-50 min) was “.02861 ml/min per kg b.w”, the “Bile flow per kg l.w.” value ([1]; 40-50 min) was “.96953 ml/min per kg l.w” and the Bile flow ([1]; 50-60 min) was “.00904 mL/min”. The “Bile flow per kg b.w.” value ([1]; 50-60 min) was “.02225 ml/min per kg b.w”, the “Bile flow per kg l.w.” value ([1]; 50-60 min) was “.75417 ml/min per kg l.w” and the Bile flow ([1]; 60-70 min) was “.01072 mL/min”. For the same compound, the “Bile flow per kg b.w.” value ([1]; 60-70 min) was “.02640 ml/min per kg b.w”, the “Bile flow per kg l.w.” value ([1]; 60-70 min) was “.89457 ml/min per kg l.w” and the Bile flow ([1]; 70-80 min) was “.01018 mL/min”. For the same compound, the “Bile flow per kg b.w.” value ([1]; 70-80 min) was “.02506 ml/min per kg b.w”, the “Bile flow per kg l.w.” value ([1]; 70-80 min) was “.84942 ml/min per kg l.w” and the Bile flow ([1]; 80-90 min) was “.00977 mL/min”. For the same compound, the “Bile flow per kg b.w.” value ([1]; 80-90 min) was “.02407 ml/min per kg b.w”, the “Bile flow per kg l.w.” value ([1]; 80-90 min) was “.81586 ml/min per kg l.w” and the dose excreted at 10 min ([1]; in vivo, iv, 100 umol/kg, Percentage of dose in bile sample, 0-10 min) was 0.52%. For the same compound, the dose excreted at 20 min ([1]; in vivo, iv, 100 umol/kg, Percentage of dose in bile sample, 10-20 min) was 1.78%, the dose excreted at 0.5 h ([1]; in vivo, iv, 100 umol/kg, Percentage of dose in bile sample, 20-30 min) was 2.68% and the dose excreted at 40 min ([1]; in vivo, iv, 100 umol/kg, Percentage of dose in bile sample, 30-40 min) was 2.28%. For the same compound, the dose excreted at 50 min ([1]; in vivo, iv, 100 umol/kg, Percentage of dose in bile sample, 40-50 min) was 2.66%, the dose excreted at 1 h ([1]; in vivo, iv, 100 umol/kg, Percentage of dose in bile sample, 50-60 min) was 1.57% and the dose excreted at 70 min ([1]; in vivo, iv, 100 umol/kg, Percentage of dose in bile sample, 60-70 min) was 1.91%. It also gave a dose excreted at 80 min ([1]; in vivo, iv, 100 umol/kg, Percentage of dose in bile sample, 70-80 min) of 1.87%, a dose excreted at 1.5 h ([1]; in vivo, iv, 100 umol/kg, Percentage of dose in bile sample, 80-90 min) of 2.21% and a dose excreted at 10 min ([1]; in vivo, iv, 100 umol/kg, Percentage of dose running total in bile, through 0-10 min) of 0.52%. The dose excreted at 20 min ([1]; in vivo, iv, 100 umol/kg, Percentage of dose running total in bile, through 10-20 min) was 2.3%, the dose excreted at 0.5 h ([1]; in vivo, iv, 100 umol/kg, Percentage of dose running total in bile, through 20-30 min) was 4.98% and the dose excreted at 40 min ([1]; in vivo, iv, 100 umol/kg, Percentage of dose running total in bile, through 30-40 min) was 7.26%. It also gave a dose excreted at 50 min ([1]; in vivo, iv, 100 umol/kg, Percentage of dose running total in bile, through 40-50 min) of 9.92%, a dose excreted at 1 h ([1]; in vivo, iv, 100 umol/kg, Percentage of dose running total in bile, through 50-60 min) of 11.5% and a dose excreted at 70 min ([1]; in vivo, iv, 100 umol/kg, Percentage of dose running total in bile, through 60-70 min) of 13.4%. The dose excreted at 80 min ([1]; in vivo, iv, 100 umol/kg, Percentage of dose running total in bile, through 70-80 min) was 15.3%, the dose excreted at 1.5 h ([1]; in vivo, iv, 100 umol/kg, Percentage of dose running total in bile, through 80-90 min) was 17.5% and the Urine concentration ([2]; 0-20 min) was 0 µM. The Urine concentration ([2]; 20-40 min) was 0 µM, the Urine concentration ([2]; 40-60 min) was 0 µM and the Urine concentration ([2]; 60-80 min) was 0 µM. For the same compound, the Urine concentration ([2]; 80-90 min) was 0 µM.

From patent publication US5250283A, “Organic contrast agent analog and method of making same” (priority 1992, dated 1993)
